#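 Values below derive from 48-hour exposures of cells grown in 96-well plates, with endpoints linearly interpolated between the two concentrations bracketing the appropriate inhibition level. At the GI50, growth is halved.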 Calls of active or inactive are those of the source. No stated cut-off is given here; in the data, active = GI50 up to about 1.1 µM and inactive = higher.
# Tests used:
# Test in all cases: inhibition of tumour cell growth, NCI panel, 48 h
# [1] = tested on: A498
# [2] = tested on: ACHN
# [3] = tested on: EKVX
# [4] = tested on: HCT-15
# [5] = tested on: HL-60
# [6] = tested on: IGROV-1
# [7] = tested on: M14
# [8] = tested on: MOLT-4
# [9] = tested on: NCI-H460
# [10] = tested on: NCI-H522
# [11] = tested on: OVCAR-4
# [12] = tested on: OVCAR-8
# [13] = tested on: RXF 393
# [14] = tested on: SF-295
# [15] = tested on: SK-MEL-2
# [16] = tested on: SN12C
# [17] = tested on: SNB-75
# [18] = tested on: TK-10
# [19] = tested on: UACC-257
# [20] = tested on: UO-31
Structure (SMILES),GI50 [1],GI50 [2],GI50 [3],GI50 [4],GI50 [5],GI50 [6],GI50 [7],GI50 [8],GI50 [9],GI50 [10],GI50 [11],GI50 [12],GI50 [13],GI50 [14],GI50 [15],GI50 [16],GI50 [17],GI50 [18],GI50 [19],GI50 [20]
CC(C)=CC1(C)/C(=N\O)C(C)(CC(C)C)C(=O)N1O (stereo not given),> 100 µM (inactive),> 100 µM (inactive),> 100 µM (inactive),> 100 µM,> 100 µM (inactive),> 100 µM (inactive),> 100 µM (inactive),> 100 µM (inactive),> 100 µM (inactive),> 100 µM (inactive),> 100 µM (inactive),> 100 µM (inactive),> 100 µM (inactive),> 100 µM (inactive),> 100 µM (inactive),> 100 µM (inactive),> 100 µM (inactive),> 100 µM (inactive),> 100 µM (inactive),> 100 µM (inactive)
O=C(c1nc2ccc(Cl)cc2[nH]c1=O)C(O)c1cccc([N+](=O)[O-])c1 (stereo not given),> 100 µM (inactive),64.3 µM (inactive),> 100 µM (inactive),> 100 µM,19.8 µM (inactive),> 100 µM (inactive),> 100 µM (inactive),35.9 µM (inactive),> 100 µM (inactive),16.2 µM (inactive),> 100 µM (inactive),> 100 µM (inactive),> 100 µM (inactive),> 100 µM (inactive),> 100 µM (inactive),> 100 µM (inactive),> 100 µM (inactive),> 100 µM (inactive),> 100 µM (inactive),80.9 µM (inactive)
COC(=O)C(Cl)=C1CC1,> 100 µM (inactive),21.5 µM (inactive),> 10 µM (inactive),20.4 µM,19.7 µM (inactive),> 100 µM (inactive),16.2 µM (inactive),17.7 µM (inactive),> 100 µM (inactive),17.6 µM (inactive),34.8 µM (inactive),30.3 µM (inactive),19.1 µM (inactive),> 100 µM (inactive),32.1 µM (inactive),41.8 µM (inactive),38.4 µM (inactive),36.7 µM (inactive),31.6 µM (inactive),31.4 µM (inactive)
ClC(Cl)=C(Cl)C1(Cl)CC1COCc1ccccc1 (stereo not given),52.4 µM (inactive),39.4 µM (inactive),26.1 µM (inactive),33.3 µM,15.6 µM (inactive),47.6 µM (inactive),32.4 µM (inactive),20.9 µM (inactive),38.5 µM (inactive),16.5 µM (inactive),17.6 µM (inactive),33.1 µM (inactive),18.1 µM (inactive),25.5 µM (inactive),17.8 µM (inactive),39.8 µM (inactive),37.2 µM (inactive),60.8 µM (inactive),26.1 µM (inactive),25.8 µM (inactive)
CN(C)CCOc1ccc2[nH]c(C(=O)N3CC(CCl)c4c3cc(NC(=O)OCc3ccc([N+](=O)[O-])cc3)c3ccccc43)cc2c1 (stereo not given),1.85 µM (inactive),0.689 µM (active),1.73 µM (inactive),1.55 µM,0.269 µM (active),1.45 µM (inactive),1.63 µM (inactive),0.538 µM (active),4.05 µM (inactive),1.12 µM (inactive),1.99 µM (inactive),0.483 µM (active),1.51 µM (inactive),1.6 µM (inactive),2.14 µM (inactive),1.5 µM (inactive),1.63 µM (inactive),14.2 µM (inactive),14.6 µM (inactive),1.28 µM (inactive)
CC(C)(C)OC(=O)NCCC1SC2C=CC1C2 (stereo not given),> 100 µM (inactive),> 100 µM (inactive),> 100 µM (inactive),> 100 µM,> 100 µM (inactive),> 100 µM (inactive),> 100 µM (inactive),> 100 µM (inactive),> 100 µM (inactive),> 100 µM (inactive),> 100 µM (inactive),> 100 µM (inactive),> 100 µM (inactive),> 100 µM (inactive),> 100 µM (inactive),> 100 µM (inactive),> 100 µM (inactive),> 100 µM (inactive),> 100 µM (inactive),> 100 µM (inactive)
COc1cc2c(cc1OCc1ccccc1)CNCC2,> 100 µM (inactive),> 100 µM (inactive),> 100 µM (inactive),> 100 µM,70.3 µM (inactive),> 100 µM (inactive),> 100 µM (inactive),> 100 µM (inactive),> 100 µM (inactive),> 100 µM (inactive),> 100 µM (inactive),> 100 µM (inactive),> 100 µM (inactive),> 100 µM (inactive),> 100 µM (inactive),> 100 µM (inactive),> 100 µM (inactive),> 100 µM (inactive),> 100 µM (inactive),> 100 µM (inactive)
Cc1ccc(Nc2c(C#N)[n+]([O-])c3cc(Cl)ccc3[n+]2[O-])cc1,> 100 µM (inactive),11.2 µM (inactive),> 81.3 µM (inactive),5.15 µM,3.44 µM (inactive),15.5 µM (inactive),30.3 µM (inactive),4.8 µM (inactive),9.31 µM (inactive),11.4 µM (inactive),24.1 µM (inactive),11.7 µM (inactive),> 22.1 µM (inactive),13.6 µM (inactive),> 100 µM (inactive),> 33.2 µM (inactive),39.5 µM (inactive),29 µM (inactive),> 76.7 µM (inactive),82.4 µM (inactive)
COC(=O)/C=C\C(C#N)(C#N)/N=C/c1cccs1,19.9 µM (inactive),1.84 µM (inactive),9.77 µM (inactive),2.13 µM,1.63 µM (inactive),15.7 µM (inactive),4.35 µM (inactive),0.982 µM (active),19.6 µM (inactive),0.783 µM (active),5.82 µM (inactive),3.76 µM (inactive),2.51 µM (inactive),18.8 µM (inactive),18.5 µM (inactive),14.7 µM (inactive),15.3 µM (inactive),1.76 µM (inactive),14.4 µM (inactive),2.26 µM (inactive)
COc1ccc(C(=O)/C=C/c2ccc(OCC(=O)N3CCN(c4ccccc4)CC3)cc2)cc1,55.1 µM (inactive),63.1 µM (inactive),> 70.5 µM (inactive),54.7 µM,> 35.6 µM (inactive),34 µM (inactive),> 100 µM (inactive),> 26.7 µM (inactive),82.4 µM (inactive),17.7 µM (inactive),46.9 µM (inactive),71 µM (inactive),26.1 µM (inactive),32.6 µM (inactive),45.4 µM (inactive),> 65.9 µM (inactive),23.7 µM (inactive),44.7 µM (inactive),> 100 µM (inactive),44.2 µM (inactive)
O=C1Cc2cn[nH]c2-c2ccccc2N1,> 94.4 µM (inactive),28.8 µM (inactive),34.7 µM (inactive),23.8 µM,29.8 µM (inactive),39.2 µM (inactive),22.5 µM (inactive),20.1 µM (inactive),24.2 µM (inactive),21.4 µM (inactive),30.3 µM (inactive),35 µM (inactive),28.2 µM (inactive),61 µM (inactive),26.9 µM (inactive),> 44.4 µM (inactive),79.3 µM (inactive),30.2 µM (inactive),23.5 µM (inactive),32.7 µM (inactive)
CC(=O)Nc1ccc2c3c(cc(O)c2c1)N(C(=O)CCCCC(=O)Nc1ccc2c4c(cc(O)c2c1)N(C(=O)OC(C)(C)C)CC4CCl)CC3CCl (stereo not given),1.94 µM (inactive),3.2 µM (inactive),12.8 µM (inactive),16.7 µM,0.42 µM (active),1.92 µM (inactive),3.27 µM (inactive),0.302 µM (active),1.83 µM (inactive),0.74 µM (active),2.52 µM (inactive),3.08 µM (inactive),1.53 µM (inactive),4.66 µM (inactive),1.75 µM (inactive),2.38 µM (inactive),1.82 µM (inactive),10.4 µM (inactive),2.26 µM (inactive),24.3 µM (inactive)
C/C(=C\c1csc(C)n1)[C@@H]1C[C@@H]2O[C@]2(C)CCC[C@H](C)[C@H](O)[C@@H](C)C(=O)C(C)(C)[C@@H](O)CC(=O)O1 [PATUPILONE],< 0.0001 µM (active),< 0.0001 µM (active),< 0.0001 µM (active),< 0.0001 µM,< 0.0001 µM (active),< 0.0001 µM (active),< 0.0001 µM (active),< 0.0001 µM (active),< 0.0001 µM (active),< 0.0001 µM (active),0.000458 µM (active),< 0.0001 µM (active),< 0.0001 µM (active),< 0.0001 µM (active),< 0.0001 µM (active),< 0.0001 µM (active),< 0.0001 µM (active),< 0.0001 µM (active),< 0.0001 µM (active),< 0.0001 µM (active)

# From ChEMBL document CHEMBL1201862, “PubChem BioAssay data set” (2004)
